Data from patent US4342751A (priority 1981, dated 1982).
Read-outs that look alike come from different tables or passages of the source. Numbered stars: 1 amine (or outer) side, 2 acyl side, 3 side chain; on linkers, the order of the positions; unused ones are H or OH. Square brackets hold non-standard residues; d marks the D form. Peptide text beside a SMILES is read from it. X1 = CCC(N[*:1])C(C)C(=O)O[C@H](C(=O)[*:2])[C@@H](C)CC; X2 = C[C@H](N[*:1])C(=O)C(C)(C)C(=O)[*:2]; NMeY = CN[C@@H](Cc1ccc(O)cc1)C(=O)O; NMeI = CC[C@H](C)[C@H](NC)C(=O)O; NMeV = CN[C@H](C(=O)O)C(C)C

How the values were obtained:
Phytophthora infestans [1] = type: cell-based; conditions: for Zone of Growth: control zone 12
[2] = system: Pythium ultimum Ridomil-sensitive strain; assay: In vitro agar-dilution test, Ridomil-sensitive strain; type: cell-based; conditions: for Zone of Growth: control zone 39
[3] = system: Pythium ultimum Ridomil-resistant strain; assay: In vitro agar-dilution test, Ridomil-resistant strain; type: cell-based; conditions: for Zone of Growth: control zone 39
Aphanomyces euteiches = assay: In vitro agar-dilution test; type: cell-based; design: Zone of Growth: unit not given beside the values; conditions: for Zone of Growth: control zone 29
Description: (§1) In these tests 100× solutions of majusculamide C in 95% aqueous ethanol were used. Majusculamide C solution (0.1 ml) and melted agar (9.9 ml) at 50° C. were mixed. An inoculum plug (6-mm diameter) was placed in the center of each plate; the radial growth of the colony was measured. Zone of growth was measured from the edge of the plug to the edge of the colony.

[4] = system: Tomato leaves (C. V. Rutgers); conditions: for Phytotoxicity rating, tomato leaves: average of two replicates
Sclerotinia homoeocarpa = assay: In vitro agar-dilution test; type: cell-based; conditions: for Percent Inhibition / Zone of Growth: Table 5; for Zone of Growth: control zone 23
Description: as §1

Rhizoctonia solani = assay: In vitro agar-dilution test; type: cell-based; conditions: for Percent Inhibition / Zone of Growth: Table 5; for Zone of Growth: control zone 27
Description: as §1

Solubility in solvents = type: physicochemical
Pythium aphanidermatum = assay: In vitro agar-dilution test; type: cell-based; design: Zone of Growth: unit not given here
Description: as §1

[5] = system: Phytophthora capsici Ridomil-Sensitive strain; assay: In vitro agar-dilution test, Ridomil-sensitive strain; type: cell-based; conditions: for Zone of Growth: control zone 27
Phytophthora infestans [6] = type: in vivo; design: key to Disease Control rating, Tomato Late Blight: 1=severe disease; 5=no disease; conditions: for Disease Control rating, Tomato Late Blight: 1-5 scale, average of two replicates
[7] = system: Phytophthora capsici Ridomil-resistant strain; assay: In vitro agar-dilution test, Ridomil-resistant strain; type: cell-based; conditions: for Zone of Growth: control zone 28
[8] = swimmer's itch; Mynderse et al., Science 196, 538-540 (1977); cited from earlier work
[9] = calculated from Table 7 results
[10] = calculated from Table 9 results
[11] = calculated from Table 5 results
[12] = 0.1 ppm, Table 7 experiment, control zone 32
[13] = 1.0 ppm, Table 7 experiment, control zone 32

CCC1NC(=O)[C@H](C)NC(=O)C(C)(C)C(=O)[C@H](C)NC(=O)[C@H](Cc2ccc(OC)cc2)N(C)C(=O)[C@H](C(C)C)N(C)C(=O)CNC(=O)[C@H]([C@@H](C)CC)N(C)C(=O)CNC(=O)[C@H]([C@@H](C)CC)OC(=O)C1C (some centres unmarked) [Majusculamide C, majusculamide C] (cyclo(A[X1]G[NMeI]G[NMeV][NMeY](Me)[X2]))
Percent Inhibition (Phytophthora infestans [1]; 0.01 ppm): 17%
Zone of Growth (Phytophthora infestans [1]; 0.01 ppm): 10
Percent Inhibition (Phytophthora infestans [1]; 0.1 ppm): 42%
Zone of Growth (Phytophthora infestans [1]; 0.1 ppm): 7
Percent Inhibition (Phytophthora infestans [1]; 1.0 ppm): 46%
Zone of Growth (Phytophthora infestans [1]; 1.0 ppm): 6.5
Percent Inhibition (Phytophthora infestans [1]; 10.0 ppm): 100%
Zone of Growth (Phytophthora infestans [1]; 10.0 ppm): 0
ED50 (Phytophthora infestans [1]; [9]): 1.07 ppm
Percent Inhibition ([2]; 0.1 ppm): 53%
Zone of Growth ([2]; 0.1 ppm): 18.5
Percent Inhibition ([2]; 1 ppm): 88%
Zone of Growth ([2]; 1 ppm): 4.5
Percent Inhibition ([2]; 10 ppm): 100%
Zone of Growth ([2]; 10 ppm): 0
ED50 [2, 10]: < 0.1 ppm
Percent Inhibition ([3]; 0.1 ppm): 60%
Zone of Growth ([3]; 0.1 ppm): 15.5
Percent Inhibition ([3]; 1 ppm): 91%
Zone of Growth ([3]; 1 ppm): 3.5
Growth observation (footnote b) ([3]; 10 ppm): No growth on plug
Percent Inhibition ([3]; 10 ppm): 100%
Zone of Growth ([3]; 10 ppm): 0
ED50 [3, 10]: < 0.5 ppm
Percent Inhibition (Aphanomyces euteiches; 0.01 ppm): 7%
Zone of Growth (Aphanomyces euteiches; 0.01 ppm): 27
Percent Inhibition (Aphanomyces euteiches; 0.1 ppm): 7%
Zone of Growth (Aphanomyces euteiches; 0.1 ppm): 27
Percent Inhibition (Aphanomyces euteiches; 1.0 ppm): 29%
Zone of Growth (Aphanomyces euteiches; 1.0 ppm): 20.5
Percent Inhibition (Aphanomyces euteiches; 10.0 ppm): 88%
Zone of Growth (Aphanomyces euteiches; 10.0 ppm): 3.5
ED50 (Aphanomyces euteiches; [9]): 2.1 ppm
Phytotoxicity rating, tomato leaves ([4]; 6.25 ppm foliar spray): 0
Phytotoxicity rating, tomato leaves ([4]; 25 ppm foliar spray): 0
Phytotoxicity rating, tomato leaves ([4]; 100 ppm foliar spray): 3.5
Phytotoxicity observation, tomato leaves (footnote b) ([4]; 400 and 100 ppm foliar spray): Evidence of chlorosis
Phytotoxicity rating, tomato leaves ([4]; 400 ppm foliar spray): 4
Percent Inhibition (Sclerotinia homoeocarpa; 1 ppm): 26%
Zone of Growth (Sclerotinia homoeocarpa; 1 ppm): 17
Percent Inhibition (Sclerotinia homoeocarpa; 10 ppm): 30%
Zone of Growth (Sclerotinia homoeocarpa; 10 ppm): 16
ED50 (effective dose to achieve 50% inhibition) (Sclerotinia homoeocarpa; [11]): > 10 ppm
Percent Inhibition (Rhizoctonia solani; 1 ppm): 30%
Zone of Growth (Rhizoctonia solani; 1 ppm): 19
Percent Inhibition (Rhizoctonia solani; 10 ppm): 63%
Zone of Growth (Rhizoctonia solani; 10 ppm): 10
ED50 (effective dose to achieve 50% inhibition) (Rhizoctonia solani; [11]): 4 ppm
Control of fungus (Rhizoctonia solani; suitable tests, not specified, Rhizoctonia damping-off): control
Solubility in organic solvents (Solubility in solvents; methanol, dichloromethane, and acetone): soluble
Solubility in water (Solubility in solvents; water): not soluble
Percent Inhibition (Pythium aphanidermatum; 0.01 ppm, Table 7 experiment): 6%
Zone of Growth (Pythium aphanidermatum; 0.01 ppm, Table 7 experiment, control zone 32): 30
Percent Inhibition (Pythium aphanidermatum; 0.1 ppm, Table 7 experiment): 62%
Zone of Growth (Pythium aphanidermatum; [12]): 12
Percent Inhibition (Pythium aphanidermatum; 1 ppm, Table 5 experiment): 97%
Zone of Growth (Pythium aphanidermatum; 1 ppm, Table 5 experiment, control zone 28): 1
Percent Inhibition (Pythium aphanidermatum; 1.0 ppm, Table 7 experiment): 95%
Zone of Growth (Pythium aphanidermatum; [13]): 1.5
Percent Inhibition (Pythium aphanidermatum; 10 ppm, Table 5 experiment): 100%
Zone of Growth (Pythium aphanidermatum; 10 ppm, Table 5 experiment, control zone 28): 0
Percent Inhibition (Pythium aphanidermatum; 10.0 ppm, Table 7 experiment): 100%
Zone of Growth (Pythium aphanidermatum; 10.0 ppm, Table 7 experiment, control zone 32): 0
ED50 (effective dose to achieve 50% inhibition) (Pythium aphanidermatum; [11]): < 1 ppm
ED50 (Pythium aphanidermatum; [9]): 0.07 ppm
Percent Inhibition ([5]; 0.1 ppm): 46%
Zone of Growth ([5]; 0.1 ppm): 14.5
Percent Inhibition ([5]; 1 ppm): 74%
Zone of Growth ([5]; 1 ppm): 7
Percent Inhibition ([5]; 10 ppm): 100%
Zone of Growth ([5]; 10 ppm): 0
ED50 [5, 10]: 0.45 ppm
Disease Control rating, Tomato Late Blight (Phytophthora infestans [6]; 6.25 ppm foliar spray): 5
Disease Control rating, Tomato Late Blight (Phytophthora infestans [6]; 25 ppm foliar spray): 5
Disease Control rating, Tomato Late Blight (Phytophthora infestans [6]; 100 ppm foliar spray): 5
Disease Control rating, Tomato Late Blight (Phytophthora infestans [6]; 400 ppm foliar spray): 5
Control of fungus (Phytophthora infestans [6]; suitable tests, not specified, tomato late blight): control
In vivo effectiveness against tomato late blight (Phytophthora infestans [6]; summary statement): effective
Percent Inhibition ([7]; 0.1 ppm): 48%
Zone of Growth ([7]; 0.1 ppm): 14.5
Percent Inhibition ([7]; 1 ppm): 84%
Zone of Growth ([7]; 1 ppm): 4.5
Percent Inhibition ([7]; 10 ppm): 98%
Zone of Growth ([7]; 10 ppm): 0.5
ED50 [7, 10]: 0.25 ppm

COCC(=O)N(c1c(C)cccc1C)C(C)C(=O)OC (centres unmarked) [Ridomil (tech.), reference compound]
Percent Inhibition (Phytophthora infestans [1]; 0.1 ppm): 50%
Zone of Growth (Phytophthora infestans [1]; 0.1 ppm): 6
Percent Inhibition (Phytophthora infestans [1]; 1.0 ppm): 83%
Zone of Growth (Phytophthora infestans [1]; 1.0 ppm): 2
Percent Inhibition (Aphanomyces euteiches; 0.1 ppm): 7%
Zone of Growth (Aphanomyces euteiches; 0.1 ppm): 27
Percent Inhibition (Aphanomyces euteiches; 1.0 ppm): 3%
Zone of Growth (Aphanomyces euteiches; 1.0 ppm): 28
Percent Inhibition (Pythium aphanidermatum; 0.1 ppm, Table 7 experiment): 34%
Zone of Growth (Pythium aphanidermatum; [12]): 21
Percent Inhibition (Pythium aphanidermatum; 1.0 ppm, Table 7 experiment): 94%
Zone of Growth (Pythium aphanidermatum; [13]): 2

CO[C@@H](CC[C@H](C)[C@H]1O[C@@]23C[C@H](OC(=O)C[C@H]([C@@H](C)O)OC(=O)C[C@](O)(O2)[C@H](C)CC3(C)C)[C@@H]1C)c1cccc(O)c1 [debromoaplysiatoxin]
Contact dermatitis [8]: causes a severe contact dermatitis
